Measured values as given in US20130230511A1, “BIOMARKERS FOR RESPONSE TO TYROSINE KINASE PATHWAY INHIBITORS IN CANCER” (BOARD OF REGENTS, THE UNIVERSITY OF TEXAS SYSTEM, priority 2012, published 2013).

Assays:
NSCLC cell line H23 = test: MTS assay of in vitro resistance to cisplatin and carboplatin, with KDR siRNA knockdown; type: cell-based; settings: for decrease in IC50 caused by knockdown of KDR: H23 cells, siKDR knockdown versus untransfected, P<0.05; for IC50: MTS assay, 72 h drug exposure
Experimental: Cisplatin and carboplatin sensitivity was determined by MTS (3-(4,5-dimethylthiazol-2-yl)-5-(3-carboxymethoxyphenyl)-2-(4-sulfophenyl)-2H-tetrazolium, inner salt) assay for each cell line and the concentration required for 50% growth inhibition (IC50) was determined.
NSCLC cells were transfected with siRNA targeting KDR and control siRNA (OriGene Technology, Md., USA) at a final concentration of 10 nM using Lipofectamine RNAiMAX (Invitrogen, CA, USA) according to the manufacturer's instructions. Medium was replaced after 24 h. To verify the knockdown efficiency, mRNA and protein of transfected cells were collected for real-time RT-PCR and Western blot analyses.
The assessment of in vitro resistance to cisplatin and carboplatin was determined by the MTS assay. NSCLC cell lines were seeded in octuplicate at a density of 2,000 per well in 96-well plates. The following day, cells were treated with cisplatin and carboplatin at various concentrations ranging from 0 to 120 μmol/L for cisplatin and 0 to 200 μmol/L for carboplatin. After 72 h of drug exposure, 20 μL of MTS solution was added per well. Cells were incubated for 1-4 hours at 37° C. and read at a wavelength of 490 nm.
To investigate the role of KDR CNG and VEGFR-2 overexpression in resistance to both cisplatin and carboplatin, siRNA was utilized to knockdown KDR expression in H23 and H461 NSCLC cell lines, which contain 6-9 KDR gene copies. […] To evaluate the effect of KDR overexpression on sensitivity to cisplatin and carboplatin, the expression of KDR was inhibited by transfecting H23 and H461 cells with control siRNA or siRNA targeting KDR and then treating the cells with increasing concentrations of the chemotherapy drugs. Cell viability was evaluated by MTS assay.

HIF-1α = settings: H23 cells (KDR CNG+), ELISA
Experimental: For HIF-1 expression analysis, the cells were serum-starved for 24 h and stimulated with 50 ng/mL VEGF-A (R&D Systems, MN, USA). Cells were incubated in normoxia and protein lysates were collected after 8 h. HIF-1α ELISA (R&D Systems, MN, USA) was performed according to the manufacturer's instructions.

H23 cells = settings: which harbor VEGFR (KDR) CNGs
[1] = tested on: HIF-1α-regulated proteins (EZH2, Met, phosphorylated Met); test: Changes in HIF-1α-regulated proteins in VEGFR amplified cell lines; type: cell-based; settings: H23 and Calu1 cells (VEGFR CNGs)
Experimental: Two VEGFR amplified cell lines, H23 and Calu1, were treated with the VEGFR pathway inhibitor bevacizumab and evaluated for changes in proteins regulated by HIF-1α.
In addition, two VEGFR amplified cell lines, H23 and Calu1, were treated with the VEGFR pathway inhibitor bevacizumab and changes in proteins regulated by HIF-1α were evaluated.

[2] = untransfected (non-transfected) H23 cells

| Compound | decrease in IC50 caused by knockdown of KDR (NSCLC cell line H23) | IC50 (NSCLC cell line H23; siKDR knockdown H23 cells) | IC50 (NSCLC cell line H23; [2]) | further results |
| --- | --- | --- | --- | --- |
| N.N.O=C([O-])C1(C(=O)[O-])CCC1.[Pt+2] [carboplatin] | 3.5 fold | 27.9 µM | 97 µM |  |
| N.N.[Cl][Pt][Cl] [cisplatin] | 1.9 fold | 53 µM | 97.9 µM |  |
| Cc1ccc(NC(=O)c2ccc(CN3CCN(C)CC3)cc2)cc1Nc1nccc(-c2cccnc2)n1 [imatinib] |  |  |  | HIF-1α levels (HIF-1α): did not affect; cell migration (H23 cells): does not inhibit cellular migration |
| bevacizumab |  |  |  | EZH2 protein [1]: decreased; Met protein [1]: decreased; phosphorylated Met [1]: decreased |
